Two compounds from US8900444B2, “Switchable hydrophilicity solvents and methods of use thereof” (Queen's University at Kingston, priority 2009, dated 2014) can be followed below.

Holding throughout (assay type): physicochemical
Data set [1] is described as follows: Miscibility of amines with water in the presence of CO2 (Example 5B). To be noted: CO2 bubbled through amine/water mixture for at least one hour. As for the experimental part: All of the amines that formed a biphasic mixture in Example 5A were subjected to the following test. Carbon dioxide was bubbled through the amine/water biphasic mixture, via a syringe needle, for at least one hour. Care was taken to regulate the rate of the CO2 bubbling, so as not to cause evaporation of the amine. The liquid-liquid interface was observed over the course of CO2 bubbling, and a photo was taken after 60 minutes.

Data set [2] is described as follows: CO2 bubbling time to phase merge with and without piperazine. To be noted: 5 mL amine + 5 mL water, room temperature, CO2 100 mL/min. The protocol: In some embodiments, addition of a small amount of piperazine further increases the rate of conversion of a switchable hydrophilicity solvent to its ionic form. […] In the presence of an absorption activator, specifically 10 wt % piperazine, the time of CO2 bubbling to phase merge was only 20 minutes. Although not experimentally shown, the inventors expect that piperazine would have a similar absorption activating effect for compounds of formula (1). A similar improvement in CO2 capture for aqueous solutions of tertiary amines was reported by Dubois (Chem. Eng. Tech. 32(5): 710 (2009)).

Data set [3] is described as follows: Visual and NMR study of amine switchable hydrophilicity solvents (Example 6). As for the experimental part: The following amines were evaluated in this series of experiments: N-ethylpiperidine, N,N-dimethylcyclohexylamine, and N,N-dimethylhexylamine. The sequence of experiments is described for one amine but was performed for all three. The visual observations are described in Table 3. 1,4-Dioxane was used as an internal standard for NMR spectroscopy.
Amine (1 mL) was combined with D2O (1 mL) in a 10 mL graduated cylinder, which was then capped with a rubber septum. The cylinder was manually shaken and left to settle at room temperature, after which the mixture appeared as two transparent liquid phases. For each amine, this procedure was simultaneously conducted in 3 identical cylinders. From the aqueous (bottom) layer of one of the three cylinders, three 250 μL samples were withdrawn, combined with equal volumes of D2O and dioxane internal standard, and analyzed by ^1H NMR spectroscopy. The spectra were consistent with the amine in the aqueous phase being in its neutral form. The graduated cylinder from which the samples were taken was discarded.
For each of two remaining graduated cylinders, carbon dioxide was bubbled through the amine/water biphasic mixture, via a syringe needle, for at least one hour. Care was taken to regulate the rate of the CO2 bubbling, so as not to cause significant evaporation of the amine. The mixture changed from a biphasic liquid mixture to a single homogeneous liquid phase. From one of the two graduated cylinders, a 300 μL sample of the homogenous liquid phase was withdrawn and mixed with an equal volume of D2O and a known quantity of dioxane internal standard. […] The graduated cylinder from which the sample was taken was discarded.
The remaining graduated cylinder, containing the single-phase amine/water/CO2 mixture prepared above, was heated in an oil bath at 80 deg. C for 1 hour. Phase separation was observed. Three 250 μL samples of the aqueous (bottom) layer were withdrawn, combined with equal volumes of D2O and a known quantity of dioxane internal standard, and analyzed by NMR spectroscopy.

Data set [4] is described as follows: Miscibility of amines with water in the absence of CO2 (Example 5A). To be noted: 1 mL amine + 1 mL H2O, room temperature, visual. The protocol:
1 mL of an appropriate amine was combined with 1 mL of H2O in a 4 mL vial, with the 1 and 2 mL volume lines marked. The vial was manually shaken and left to settle at room temperature. After the mixture settled, the number of phases was observed visually. This procedure was performed for all of the screened amines.

A short description of data set [5]: Qualitative switchability assessment of BA (Example 1B). To be noted: 80 °C oil bath, stirred. An excerpt:
The BA amidine's ability to act as a switchable hydrophilicity solvent for the separation of a selected substance is dependent on its ability to switch from the hydrophobic form to a hydrophilic form. This is achieved by adding water to provide an aqueous layer and decreasing the pH of the aqueous layer, namely by dissolving CO2 in the aqueous layer. When carbon dioxide dissolves in water, it forms carbonic acid with pKa1 of 6.4. The resultant dissociation is sufficient to protonate a hydrophobic amidine, causing it to become charged forming a hydrophilic amidinium bicarbonate (BAB). In this preliminary switching study, the amidine's ability to act as a base and its ability to switch hydrophilicity were studied.
Switching behavior was studied for BA over various periods of time. A glass vial (4 mL) was prepared, containing distilled water (1.0 mL) and BA amidine (0.5 mL).
CO2 was bubbled through the vial for roughly 30 minutes, until the top layer had disappeared showing that a hydrophilic solution of BAB in water had been formed.
A magnetic stirrer was placed in the vial. The vial was suspended in an 80° C. oil bath and stirred. The vial was intermittently removed from the bath and monitored for the presence of a second layer after 20, 50 and 75 minutes. The formation of a second layer (hydrophobic BA) was noted after 20 minutes in the oil bath.

Data set [6] is described as follows: Polarity study with solvatochromatic dye Nile Red (Example 3). To be noted: water-saturated BA or aqueous solution of BAB. The protocol: The maximum wavelength of absorption, λmax, of a switchable hydrophilicity solvent, N,N,N′-tributylpentanamidine (BA), was analyzed in its hydrophobic and hydrophilic forms using the solvatochromatic dye, Nile Red. A 1 Dram vial was prepared containing 1 mL of distilled water to which 1 mL of BA was added. […] This ensured saturation of the BA phase with water. The top phase comprising the BA liquid was pipetted into a quartz cuvette (Semi-Micro Cells, Self Masking Black Walls Spectrosil® Quartz, Starna Cells, Atascadero, Calif., USA) and 1 mg of Nile Red was added, to provide a bright orange-magenta solution. The ultraviolet absorbance spectrum was acquired on an Agilent Technologies ultraviolet/visible spectrometer 50-60 Hz with UV-Visible Chemstation software. The λmax was 510 nm. Distilled water (1.0 mL) was then added to the quartz cuvette and carbon dioxide was slowly bubbled into the mixture for 1 hour to switch the BA to its ionic form, N,N,N′-tributylpentanamidinium bicarbonate (BAB), after which the homogenous mixture turned purple. The ultraviolet absorbance spectrum of the aqueous solution of the dye and ionic salt was then acquired as discussed in the previous paragraph. The λmax was 570 nm.

A short description of data set [7]: Quantitative switching study of BA by 1H NMR (Example 1D). As for the experimental part: A methanol-d4 solution was prepared containing a sodium acetate internal standard (48.8 mM).
Two 4 mL glass vials containing 1.0 mL D2O and 0.5 mL BA were prepared and shaken. A 50 μL sample was withdrawn from each layer of one vial and combined with 0.50 mL of the sodium acetate standard solution in each of two NMR tubes: the top layer (BA) in a first tube; the bottom layer (aqueous) in a second tube.
Carbon dioxide was bubbled through the unsampled vial until the BA had completely converted to BAB, as evidenced by the disappearance of the top layer. The pH of the solution was measured using pH paper to be approximately 8-9. A 50 μL sample was withdrawn from the BAB/D2O solution and added to 0.50 mL of the sodium acetate standard solution in a third NMR tube.
The 4.0 mL vial from which the last NMR sample was withdrawn was then heated at 80° C. for 1 h and stirred by a magnetic stirrer. Bubbles of CO2 were observed escaping from the solution and a top layer, hydrophobic amidine, appeared. After cooling the vial to room temperature, a 50 μL sample was withdrawn from each layer and combined with 0.50 mL of the sodium acetate standard in two NMR tubes: the top layer (BA) in a fourth tube; the bottom layer (aqueous) in a fifth tube.
The NMR spectra of all five samples are shown in FIG. 10 with the first to fifth tubes shown from top to bottom. […] In addition, using the ‘c’ and ‘d’ protons provided stronger signals, to improve accuracy. Based on the strength of the ‘c’ and ‘d’ signals, 11% of the BA remained in the aqueous phase as BAB after the experiment
Using dioxane as the internal standard gave the same results (11% BAB retention in the aqueous phase) as sodium acetate.
The same experiment was repeated except that the temperature of the heating of the 4.0 mL vial was increased from 80° C. to 90° C. A similar retention of BAB in the aqueous phase (12%) was observed.

The mark [8] stands for this setting: listed as N,N-dimethyl-N-cyclohexylamine.

As to `CN(C)C1CCCCC1` [N,N-dimethylcyclohexylamine], the “miscibility with water after CO2 treatment” value in data set [1] is given as “single-phase”. For the same compound, the “miscibility with water after CO2 treatment” value in data set [1] (setting [8]) is “became water-miscible”. In data set [2] (10 wt % piperazine), the “time of CO2 bubbling to phase merge” value turned out to be 20 min. In addition, in data set [2] (absence of piperazine), the “time of CO2 bubbling for phase merge” value is 35 min. Besides, the “time of CO2 bubbling to form one homogeneous solution” value in data set [3] (1 mL amine + 1 mL D2O) is reported as “took 45 min to form one”. For the same compound, in data set [3] (1 mL amine + 1 mL D2O, room temperature), the “number of layers formed without CO2” value is given as “formed 2 clear,”. Moreover, in data set [3] (oil bath 80 deg. C), the “time of heating to separate into 2 layers” value was “after 30 min, solution has”; the “volume of bottom (aqueous) layer after heating” value was “clear & colorless, with volume of 1 mL,”; the “volume of top layer after heating” value was “oily, with volume of 0.8 mL”. Moreover, the “miscibility with water under air (absence of CO2)” value in data set [4] is given as “biphasic”. The “miscibility with water under air (absence of CO2)” value in data set [4] (setting [8]) was “immiscible with water”.

Turning to `CCCCN=C(CCCC)N(CCCC)CCCC.O=C(O)O` [BAB, N,N,N′-tributylpentanamidinium bicarbonate], the “heating time to formation of second (hydrophobic) layer” value in data set [5] is 20 min. In data set [6], the “maximum wavelength of absorption (λmax) of Nile Red” value turned out to be 570 nm. Also, the “BAB retention in the aqueous phase after heating” value in data set [7] (80 °C, 1 h, dioxane internal standard) was 11%. In data set [7] (90 °C), the “retention of BAB in the aqueous phase after heating” value came out at 12%. For the same compound, the “pH of solution after complete conversion with CO2” value in data set [7] (BAB/D2O solution, pH paper) was 8-9. Moreover, the “BAB ionic form converted back to BA” value in data set [7] (after heating for 1 hour) is listed as > 90%.
